# System: Cydia pomonella
# Test: Insecticidal test against Cydia pomonella
# Type: in vivo
# Details: 168 h, 100 ppm water dilution, 0.2 ml on surface of artificial diet, eggs just before hatching, after 7 days
# Description: A water dilution (100 ppm) of a test compound formulation obtained according to Formulation Example 1 was added dropwise at a volume of 0.2 ml and spread over the surface of an artificial diet having a weight of 3 g, which had been prepared in a 30 ml polyethylene cup. After air drying, placed in the cup was a piece of wax paper (about 2.5 cm square) having about 20 eggs which had been laid by Cydia pomonella and were just before hatching. Four pieces of such wax paper were used for each treatment. After 7 days, the mortality of the larvae was determined.
row,Structure (SMILES),mortality at 100 µg/mL [%]
1,"CON=Cc1ccc(CCCOc2c(Cl)cc(OCC=C(Cl)Cl)cc2Cl)cc1 [(365), 4-(3-(2,6-dichloro-4-(3,3-dichloro-2-propenyloxy)phenoxy)propyl)benzaldehyde O-methyloxime]",≥ 80
2,"CC(=NOC(C)(C)C)c1ccc(OCCCOc2c(Cl)cc(OCC=C(Cl)Cl)cc2Cl)cc1 [(294), 4′-(3-(2,6-dichloro-4-(3,3-dichloro-2-propenyloxy)phenoxy)propyloxy)acetophenone O-tert-butyloxime]",≥ 80
3,"CC(C)Oc1ccc(C=NOCCCCOc2c(Cl)cc(OCC=C(Cl)Cl)cc2Cl)cc1 [(579), 4-isopropoxybenzaldehyde O-(4-(2,6-dichloro-4-(3,3-dichloro-2-propenyloxy)phenoxy)butyl)oxime]",≥ 80
4,"ClC(Cl)=CCOc1cc(Cl)c(OCc2cccc(C=NOCc3ccccc3)c2)c(Cl)c1 [(324), 3-(2,6-dichloro-4-(3,3-dichloro-2-propenyloxy)phenoxymethyl)benzaldehyde O-benzyloxime]",≥ 80
5,"ClC(Cl)=CCON=Cc1cccc(COc2c(Cl)cc(OCC=C(Cl)Cl)cc2Cl)c1 [(323), 3-(2,6-dichloro-4-(3,3-dichloro-2-propenyloxy)phenoxymethyl)benzaldehyde O-(3,3-dichloro-2-propenyl)oxime]",≥ 80
6,"CCc1cc(OCC=C(Cl)Cl)cc(CC)c1OCCCCOCC=NOCC=C(Cl)Cl [(10), 4-(2,6-diethyl-4-(3,3-dichloro-2-propenyloxy)phenoxy)butyloxyacetaldehyde O-(3,3-dichloro-2-propenyl)oxime]",≥ 80
7,"CC(C)CON=Cc1ccc(CCCOc2c(Cl)cc(OCC=C(Cl)Cl)cc2Cl)cc1 [(382), 4-(3-(2,6-dichloro-4-(3,3-dichloro-2-propenyloxy)phenoxy)propyl)benzaldehyde O-iso-butyloxime]",≥ 80
8,"ClC(Cl)=CCOc1cc(Cl)c(OCCCCCCON=C2CCSCC2)c(Cl)c1 [(575), tetrahydrothiopyran-4-one O-(6-(2,6-dichloro-4-(3,3-dichloro-2-propenyloxy)phenoxy)hexyl)oxime]",≥ 80
9,"CC(=NOCCOc1c(Cl)cc(OCC=C(Cl)Cl)cc1Cl)c1ccc(C(F)(F)F)cc1 [(549), 4′-(trifluoromethyl)acetophenone O-(2-(2,6-dichloro-4-(3,3-dichloro-2-propenyloxy)phenoxy)ethyl)oxime]",≥ 80
10,"FC(F)(F)c1ccc(C=NOCCOc2c(Cl)cc(OCC=C(Cl)Cl)cc2Cl)cc1 [(550), 4-(trifluoromethyl)benzaldehyde O-(2-(2,6-dichloro-4-(3,3-dichloro-2-propenyloxy)phenoxy)ethyl)oxime]",≥ 80
11,"CCCON=Cc1cccc(COc2c(Cl)cc(OCC=C(Cl)Cl)cc2Cl)c1 [(379), 3-((2,6-dichloro-4-(3,3-dichloro-2-propenyloxy)phenoxy)methyl)benzaldehyde O-propyloxime]",≥ 80
12,"CCON=C(C)c1ccc(OCCCCOc2c(Cl)cc(OCC=C(Cl)Cl)cc2Cl)cc1 [(297), 4′-(4-(2,6-dichloro-4-(3,3-dichloro-2-propenyloxy)phenoxy)butyloxy)acetophenone O-ethyloxime]",≥ 80

# System: Musca domestica
# Test: Insecticidal test against Musca domestica
# Type: in vivo
# Details: 24 h, 500 ppm water dilution, 0.7 ml on filter paper with sucrose, female adults, after 1 day, read-out: mortality
# Description: In the bottom of a polyethylene cup having a diameter of 5.5 cm was placed a piece of filter paper having the same size. A 200-fold water dilution (500 ppm) of a test compound formulation obtained according to Formulation Example 1 was added dropwise at a volume of 0.7 ml on the filter paper, and about 30 mg of sucrose as a diet was uniformly placed thereon. Ten female adults of houseflies (Musca domestica) were set free in the cup, and the cup was kept covered. After 1 day, the survival of the adults was determined to determine the mortality.
row,Structure (SMILES),mortality at 500 µg/mL [%]
1,"CON=CCOCCCCCOc1c(Cl)cc(OCC=C(Cl)Cl)cc1Cl [(158), 5-(2,6-dichloro-4-(3,3-dichloro-2-propenyloxy)phenoxy)pentyloxyacetaldehyde O-methyloxime]",≥ 80
2,"CC(COCCCCCOc1c(Cl)cc(OCC=C(Cl)Cl)cc1Cl)=NOCc1ccccc1 [(175), 5-(2,6-dichloro-4-(3,3-dichloro-2-propenyloxy)phenoxy)pentyloxyacetone O-benzyloxime]",≥ 80
3,"C=CCON=Cc1cccc(COc2c(Cl)cc(OCC=C(Cl)Cl)cc2Cl)c1 [(330), 3-(2,6-dichloro-4-(3,3-dichloro-2-propenyloxy)phenoxymethyl)benzaldehyde O-allyl oxime]",≥ 80
4,"C=CCON=CCCCCOc1c(Cl)cc(OCC=C(Cl)Cl)cc1Cl [(19), 5-(2,6-dichloro-4-(3,3-dichloro-2-propenyloxy)phenoxy)pentanal O-(2-propenyl)oxime]",≥ 80
5,"CCON=CCCCOc1c(Cl)cc(OCC=C(Cl)Cl)cc1Cl [(28), 4-(2,6-dichloro-4-(3,3-dichloro-2-propenyloxy)phenoxy)butanal O-ethyloxime]",≥ 80
6,"CCCON=CCCCCOc1c(Cl)cc(OCC=C(Cl)Cl)cc1Cl [(18), 5-(2,6-dichloro-4-(3,3-dichloro-2-propenyloxy)phenoxy)pentanal O-n-propyloxime]",≥ 80
7,"CC(C)=NOCCCCCOc1c(Cl)cc(OCC=C(Cl)Cl)cc1Cl [(560), acetone O-(5-(2,6-dichloro-4-(3,3-dichloro-2-propenyloxy)phenoxy)pentyl)oxime]",≥ 80
8,"ClC(Cl)=CCOc1cc(Cl)c(OCCCCC=NOCC(Cl)(Cl)Cl)c(Cl)c1 [(170), 5-(2,6-dichloro-4-(3,3-dichloro-2-propenyloxy)phenoxy)pentanal O-(2,2,2-trichloroethyl)oxime]",≥ 80
9,"CCON=CCOCCCCCOc1c(Cl)cc(OCC=C(Cl)Cl)cc1Cl [(159), 5-(2,6-dichloro-4-(3,3-dichloro-2-propenyloxy)phenoxy)pentyloxyacetaldehyde O-ethyloxime]",≥ 80
10,"CC(C)ON=CCOCCCCCOc1c(Cl)cc(OCC=C(Cl)Cl)cc1Cl [(153), 5-(2,6-dichloro-4-(3,3-dichloro-2-propenyloxy)phenoxy)pentyloxyacetaldehyde O-isopropyloxime]",≥ 80
11,"CC=NOCCCCCOc1c(Cl)cc(OCC=C(Cl)Cl)cc1Cl [(541), acetaldehyde O-(5-(2,6-dichloro-4-(3,3-dichloro-2-propenyloxy)phenoxy)pentyl)oxime]",≥ 80
12,"CCON=Cc1ccc(OCCOc2c(Cl)cc(OCC=C(Cl)Cl)cc2Cl)cc1 [(287), 4-(2-(2,6-dichloro-4-(3,3-dichloro-2-propenyloxy)phenoxy)-ethoxy)benzaldehyde O-ethyloxime]",≥ 80
13,"CON=CCCCOc1c(Cl)cc(OCC=C(Cl)Cl)cc1Cl [(29), 4-(2,6-dichloro-4-(3,3-dichloro-2-propenyloxy)phenoxy)butanal O-methyloxime]",≥ 80
14,"CC(=NOCCCCOc1c(Cl)cc(OCC=C(Cl)Cl)cc1Cl)c1ccccn1 [(689), methyl 2-pyridyl ketone O-(4-(2,6-dichloro-4-(3,3-dichloro-2-propenyloxy)phenoxy)butyl)oxime]",≥ 80
15,"COc1ccc(CON=CCCCCOc2c(Cl)cc(OCC=C(Cl)Cl)cc2Cl)cc1 [(22), 5-(2,6-dichloro-4-(3,3-dichloro-2-propenyloxy)phenoxy)pentanal O-(4-methoxybenzyl)oxime]",≥ 80
16,"CCCCOCC=NOCCCCCOc1c(Cl)cc(OCC=C(Cl)Cl)cc1Cl [(565), n-butyloxyacetaldehyde O-(5-(2,6-dichloro-4-(3,3-dichloro-2-propenyloxy)phenoxy)pentyl)oxime]",≥ 80
17,"CCCCON=Cc1ccc(COc2c(Cl)cc(OCC=C(Cl)Cl)cc2Cl)cc1 [(376), 4-((2,6-dichloro-4-(3,3-dichloro-2-propenyloxy)phenoxy)methyl)benzaldehyde O-butyloxime]",≥ 80
18,"CC(C)CON=CCOCCCCCOc1c(Cl)cc(OCC=C(Cl)Cl)cc1Cl [(155), 5-(2,6-dichloro-4-(3,3-dichloro-2-propenyloxy)phenoxy)pentyloxyacetaldehyde O-isobutyloxime]",≥ 80
19,"CCCCCC=NOCCCCCCOc1c(Cl)cc(OCC=C(Cl)Cl)cc1Cl [(551), hexanal O-(6-(2,6-dichloro-4-(3,3-dichloro-2-propenyloxy)phenoxy)hexyl)oxime]",≥ 80
20,"ClC(Cl)=CCOc1cc(Cl)c(OCCCCCON=C2CCCCC2)c(Cl)c1 [(566), cyclohexanone O-(5-(2,6-dichloro-4-(3,3-dichloro-2-propenyloxy)phenoxy)pentyl)oxime]",≥ 80
21,"CON=Cc1ccc(OCCCOc2c(Cl)cc(OCC=C(Cl)Cl)cc2Cl)cc1 [(305), 4-(3-(2,6-dichloro-4-(3,3-dichloro-2-propenyloxy)phenoxy)propyloxy)benzaldehyde O-methyloxime]",≥ 80
22,"C=CCON=CCOCCCCOc1c(Cl)cc(OCC=C(Cl)Cl)cc1Cl [(4), 4-(2,6-dichloro-4-(3,3-dichloro-2-propenyloxy)phenoxy)butyloxyacetaldehyde O-(2-propenyl)oxime]",≥ 80
23,"CCON=CCOCCCCOc1c(Cl)cc(OCC=C(Cl)Cl)cc1Cl [(1), 4-(2,6-dichloro-4-(3,3-dichloro-2-propenyloxy)phenoxy)butyloxyacetaldehyde O-ethyloxime]",≥ 80
24,"CON=CCOCCCCOc1c(Cl)cc(OCC=C(Cl)Cl)cc1Cl [(7), 4-(2,6-dichloro-4-(3,3-dichloro-2-propenyloxy)phenoxy)butyloxyacetaldehyde O-methyloxime]",≥ 80
25,"CCON=C(C)COCCCCCOc1c(Cl)cc(OCC=C(Cl)Cl)cc1Cl [(176), 5-(2,6-dichloro-4-(3,3-dichloro-2-propenyloxy)phenoxy)pentyloxyacetone O-ethyloxime]",≥ 80

# Source: US6437184B1, “Oxime compounds, their use, and intermediates for their production” (Sumitomo Chemical Company, Limited, priority 1997, dated 2002)
